Reference: patent publication US5672712A, “Thiazoline derivatives” (Taisho Pharmaceutical Co., Ltd., priority 1994, dated 1997)
≈ marks a conversion by molar mass, not a printed value. Counter-ions that a name gives are not always drawn.

Key:
[1] = Stability Test (pH 7 phosphate buffer, 80° C.); type: physicochemical; details: 20 mg in 1000 ml; for remaining at 4 h: After 4 hours; for remaining at 4 h / remaining at 8 h / remaining at 24 h: read-out: Remaining rate of Test drug; for remaining at 8 h: After 8 hours; for remaining at 24 h: After 24 hours; for Remaining rate of Test drug: Immediately after
Protocol: Experiment 4 [Stability Test]
Stability test was carried out referring to the method of A. K. Amirjahed et al [J. Pharm. Sci., vol. 66, page 785 (1977)].
20 mg of Compound 8 obtained in the following example and 20 mg of Comparative drug, each weighed accurately, were each dissolved in 0.1N phosphate buffer (a buffer of a suitable amount of 0.1M potassium dihydrogenphosphate mixed with a suitable amount of 0.1M disodium hydrogenphosphate to adjust to pH 7) to make exactly 1000 ml to give standard solutions, respectively. The solution was dispensed into ampules, and they were stored at 80° C. for 4 hours, 8 hours and 24 hours to prepare test solutions.
20 μl of the test solution and 20 μl of the standard solution were each quantified by high performance liquid chromatography method under the following procedure conditions, and the peak areas of Compound 8 and Comparative drug at the storage times were determined, and the remaining rate was calculated by using the following formula, and the results are shown in Table 4.
Detection instrument: Ultraviolet spectrophotometer (Detection wave length: 247 nm)
(§1) Column: ODS column 4.6.phi.×150 mm (TSK Gel ODS 80TM)
Column temperature: A definite temperature in the vicinity of 50° C.
[Compound 8] 1 ml of phosphoric acid and 5 g of sodium dodecylsulfate (SDS) are added to 1000 ml of a mixture of water and acetonitrile (65:35).
[Comparative drug] 1 ml of phosphoric acid and 3 g of sodium dodecylsulfate (SDS) are added to 1000 ml of a mixture of water and acetonitrile (60:40).
Formula: Remaining rate (%)= [formula]

[2] = test system: blood platelet aggregation; test: Human in vitro Blood Platelet Aggregation Inhibition Test (ADP-induced, PRP); type: cell-based; details: ADP 7 μM, 37° C., 50% inhibition of maximum aggregation
Protocol: Experiment 2 [Human in vitro Blood Platelet Aggregation Inhibition Test]
Citrated blood (the volume ratio of 3.13% sodium citrate solution and blood is 1:9) was collected from the cubital vein of a healthy human who had not received any drugs known to affect the function of blood platelet within 2 weeks prior to starting the test, and centrifuged at 120× g at room temperature for 15 minutes to give platelet rich plasma (PRP) as a supernatant. The remaining precipitate was further centrifuged at 1500× g for 10 minutes to give platelet poor plasma (PPP) as a supernatant. The blood platelet counts of PRP were adjusted to 50~60×10^4 /μl by diluting with PPP.
Blood platelet aggregation was monitored according to the method of Born G. V. R., [Nature, vol. 194, page 927 (1962)] using adenosine diphosphate (produced by Sigma Co.; hereinafter referred to as "ADP") as an aggregation-inducing substance. That is, a solution of the compound of Formula (I) as a test drug in dimethyl sulfoxide was adjusted to the desired concentration with a physiological saline solution. 25 μl of the solution was added to 250 μl of PRP and incubated at 37° C. for 3 minutes, and 25 μl of ADP (final concentration: 7 μM) was added thereto. […]

[3] = Solubility Test (0.1M phosphate buffer, pH 7); type: physicochemical; details: aqueous buffer, 0.1M phosphate buffer pH 7, 25° C.
Protocol: Experiment 3 [Solubility Test]
Solubility test was carried out referring to the method of S. Miyazaki et al. [Chem. Pharm. Bull., vol. 23, page 1197 (1975)].
9.511 g of disodium hydrogenphosphate weighed accurately was dissolved in 800 ml of water. The solution was adjusted to pH 7.0 by adding sodium dihydrogenphosphate, and the total volume of the solution was made exactly 1000 ml to give a 0.1M phosphate buffer (pH 7). To 1.0 ml of the buffer solution measured exactly was added an excess amount for the solubility limit of the test drug. The suspension was treated by supersonic waves for 5 minutes and stirred on a water bath at 25° C. for 24 hours. After removal of the insoluble substance by using a membrane filter (0.22 μm), the filtrate was appropriately diluted to give a test solution. Separately, 1 mg of the test drug weighed accurately was dissolved in the eluate to make exactly 100 ml to give a standard solution. The test solution and the standard solution were quantified by high performance liquid chromatography method under the following procedure conditions, and the solubility of the test drug was calculated.
Detection instrument: Ultraviolet spectrophotometer (Detection wave length: 246 nm)
as §1
Column temperature: A definite temperature in the vicinity of 50° C. […]

[4] = target: T1, fibrinogen receptor (GpIIb/IIIa) on blood platelet (Homo sapiens, UniProt P05106+P08514); test: Human Blood Platelet Fibrinogen Binding Test (125I labeled human fibrinogen, ADP 10 μM); details: human platelet 125I-fibrinogen binding
T1 construct: fibrinogen-free blood platelet suspension; endogenous in cells; host or cells: human blood platelets (from citrated venous blood of a healthy donor, gel-filtered)
T1 sequence (P08514 32-887 limits assumed): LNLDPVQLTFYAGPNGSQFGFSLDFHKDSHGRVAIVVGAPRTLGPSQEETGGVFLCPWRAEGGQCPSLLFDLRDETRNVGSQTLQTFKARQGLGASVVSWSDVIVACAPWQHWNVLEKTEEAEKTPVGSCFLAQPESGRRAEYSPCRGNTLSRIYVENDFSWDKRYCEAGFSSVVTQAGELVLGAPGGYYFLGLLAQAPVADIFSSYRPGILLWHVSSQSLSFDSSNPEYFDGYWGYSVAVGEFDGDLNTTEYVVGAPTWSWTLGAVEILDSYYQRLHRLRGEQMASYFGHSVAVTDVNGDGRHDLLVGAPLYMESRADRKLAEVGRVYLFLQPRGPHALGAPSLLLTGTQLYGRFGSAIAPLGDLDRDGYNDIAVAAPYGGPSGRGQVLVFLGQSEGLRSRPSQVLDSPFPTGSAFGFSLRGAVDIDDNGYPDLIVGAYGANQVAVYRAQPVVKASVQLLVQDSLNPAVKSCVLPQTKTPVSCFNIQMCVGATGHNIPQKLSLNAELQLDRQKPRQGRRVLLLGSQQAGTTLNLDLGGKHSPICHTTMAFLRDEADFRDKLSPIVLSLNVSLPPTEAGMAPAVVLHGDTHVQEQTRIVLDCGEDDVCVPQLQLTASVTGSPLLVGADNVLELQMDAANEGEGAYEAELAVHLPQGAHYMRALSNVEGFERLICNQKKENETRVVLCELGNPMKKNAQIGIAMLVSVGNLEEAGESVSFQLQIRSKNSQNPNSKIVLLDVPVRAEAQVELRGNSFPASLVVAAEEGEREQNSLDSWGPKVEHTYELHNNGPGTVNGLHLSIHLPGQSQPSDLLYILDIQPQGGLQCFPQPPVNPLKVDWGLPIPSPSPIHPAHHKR
T1 sequence (P08514 891-1039 partner limits assumed): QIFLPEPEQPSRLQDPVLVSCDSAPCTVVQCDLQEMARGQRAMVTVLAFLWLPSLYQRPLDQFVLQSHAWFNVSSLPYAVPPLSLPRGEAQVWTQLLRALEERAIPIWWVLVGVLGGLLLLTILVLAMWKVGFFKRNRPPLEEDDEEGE
T1 sequence (P05106 27-788): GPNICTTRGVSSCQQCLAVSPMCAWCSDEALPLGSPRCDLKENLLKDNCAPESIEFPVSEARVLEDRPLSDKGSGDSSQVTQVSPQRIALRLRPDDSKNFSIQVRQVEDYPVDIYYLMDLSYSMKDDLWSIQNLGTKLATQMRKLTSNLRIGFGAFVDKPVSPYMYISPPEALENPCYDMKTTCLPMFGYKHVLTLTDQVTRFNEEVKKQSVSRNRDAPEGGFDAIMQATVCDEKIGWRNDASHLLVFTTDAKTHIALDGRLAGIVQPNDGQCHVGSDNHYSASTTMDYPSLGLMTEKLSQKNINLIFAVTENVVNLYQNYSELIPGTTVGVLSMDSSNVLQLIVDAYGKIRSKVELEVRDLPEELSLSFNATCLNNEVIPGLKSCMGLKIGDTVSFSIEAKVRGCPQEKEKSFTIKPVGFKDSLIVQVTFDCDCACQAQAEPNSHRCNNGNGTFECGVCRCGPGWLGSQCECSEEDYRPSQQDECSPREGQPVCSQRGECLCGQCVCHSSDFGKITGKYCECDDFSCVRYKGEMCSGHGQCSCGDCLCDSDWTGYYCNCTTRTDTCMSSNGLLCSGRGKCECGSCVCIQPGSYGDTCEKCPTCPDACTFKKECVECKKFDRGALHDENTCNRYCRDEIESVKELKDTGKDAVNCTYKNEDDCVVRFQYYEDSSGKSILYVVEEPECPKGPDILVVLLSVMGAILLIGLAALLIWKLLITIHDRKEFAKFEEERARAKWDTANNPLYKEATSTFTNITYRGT
Protocol: Experiment 1 [Human Blood Platelet Fibrinogen Binding Test]
The test was carried out referring to the methods of G. A. Marguerie (J. Biol. Chem., vol. 254, pages. 5357-5363, 1979) and N. S. Nicholson (Thromb. Res., vol. 50, pages 567-578, 1991).
Citrated blood (the volume ratio of 3.13% sodium citrate solution and blood is 1:9) was collected from the cubital vein of a healthy human who had not received any drugs known to affect the function of blood platelet within 2 weeks prior to starting the test, and centrifuged at 120× g at room temperature for 15 minutes to give platelet rich plasma (PRP) as a supernatant.
To the above PRP was added one fifth volume of an ACD solution (citric acid/sodium citrate/dextrose), followed by centrifugation at 1200× g for 15 minutes. The precipitate was suspended in a Tyrode's solution ([…], 2 mM Mg^2+), followed by gel filtration using Sepharose 2B column to give a fibrinogen-free blood platelet suspension (1×10^9 /ml). The binding test was carried out by using the fibrinogen-free blood platelet suspension, the solutions of the compounds of Formula (I) in dimethyl sulfoxide which were each adjusted to the desired concentration by diluting with a physiological saline solution as test drugs, ADP (final concentration: 10 μM) and ^125 I labeled human fibrinogen, and then the binding inhibitory rate of the test drug was calculated.
N-(2-Carboxyethyl)-2-(4-amidinobenzoylimino)-3,4-dimethyl-3H-thiazoline-5-carboxamide hydrobromide (described in WO 94/02472; referred to as "Comparative drug" in the following experiments) was used as a comparative drug. The drug solution was prepared in the same manner as described above, and tested as described above.
The results are shown in Table 1 in which the compound numbers are the same as defined in the following examples and are also used in the following experiments.

## Cc1c(C(=O)NCCC(=O)O)sc(=NC(=O)c2ccc(C(=N)N)cc2)n1C [Comparative drug, N-(2-Carboxyethyl)-2-(4-amidinobenzoylimino)-3,4-dimethyl-3H-thiazoline-5-carboxamide hydrobromide, reference compound]
[1]
  remaining at 4 h: 82.2%
  remaining at 8 h: 68.4%
  remaining at 24 h: 32.3%
  Remaining rate of Test drug: 100%
[2]
  IC50: 17 nM
[3]
  solubility at 24 h: 0.03 mg/mL
[4]
  IC50: 5 nM

## Cc1c(C(=O)NCCC(=O)O)sc(=NC(=O)c2ccc(C(=N)NCCCC(=O)O)cc2)n1C [Compound 8, N-(2-carboxyethyl)-2-{4-[N-(3-carboxypropyl)amidino]benzoylimino}-3,4-dimethyl-3H-thiazoline-5-carboxamide]
[1]
  remaining at 4 h: 97.8%
  remaining at 8 h: 95.7%
  remaining at 24 h: 88.9%
  Remaining rate of Test drug: 100%
[2]
  IC50: 39 nM
[3]
  solubility at 24 h: 20 mg/mL (≈ 42.1 mM)
[4]
  IC50: 25.6 nM

## Cc1c(C(=O)NCCC(=O)O)sc(=NC(=O)c2ccc(C(=N)NCCC(=O)O)cc2)n1C [Compound 9, N-(2-carboxyethyl)-2-{4-[N-(2-carboxyethyl)amidino]-benzoylimino}-3,4-dimethyl-3H-thiazoline-5-carboxamide]
[4]
  IC50: 16.5 nM

## Cc1c(C(=O)NCCC(=O)O)sc(=NC(=O)c2ccc(C(=N)NCCCC(=O)OC3CCCCC3)cc2)n1C [Compound 11, N-(2-carboxyethyl)-2-{4-[N-(3-cyclohexyloxycarbonylpropyl)amidino]benzoylimino}-3,4-dimethyl-3H-thiazoline-5-carboxamide]
[4]
  IC50: 8.2 nM

## Cc1c(C(=O)NCCC(=O)O)sc(=NC(=O)c2ccc(C(=N)NCCCC(=O)NC3CCCCC3)cc2)n1C [Compound 12, N-(2-carboxyethyl)-2-{4-[N-(3-cyclohexylaminocarbonylpropyl)amidino]benzoylimino}-3,4-dimethyl-3H-thiazoline-5-carboxamide]
[4]
  IC50: 4.7 nM

## Cc1c(C(=O)NCCC(=O)O)sc(=NC(=O)c2ccc(C(=N)NCCCC(=O)OC3CCCCC3)cc2)n1C(C)C [Compound 17, N-(2-carboxyethyl)-2-{4-[N-(3-cyclohexyloxycarbonylpropyl)amidino]benzoylimino}-3-isopropyl-4-methyl-3H-thiazoline-5-carboxamide]
[4]
  IC50: 12.6 nM

## Cc1c(C(=O)NCCC(=O)O)sc(=NC(=O)c2ccc(C(=N)NCCCC(=O)OC3CCCCC3)cc2)n1C1CC1 [Compound 49, N-(2-carboxyethyl)-2-{4-[N-(3-cyclohexyloxycarbonylpropyl)amidino]benzoylimino}-3-cyclopropyl-4-methyl-3H-thiazoline-5-carboxamide]
[4]
  IC50: 7.2 nM

## Cc1c(C(=O)NCCC(=O)O)sc(=NC(=O)c2ccc(C(=N)NCCCCCC(=O)Nc3ccccc3)cc2)n1C1CC1 [Compound 51, N-(2-carboxyethyl)-2-{4-[N-(5-phenylaminocarbonylpentyl)amidino]benzoylimino}-3-cyclopropyl-4-methyl-3H-thiazoline-5-carboxamide]
[4]
  IC50: 8.6 nM

## Cc1c(C(=O)NCCC(=O)O)sc(=NC(=O)c2ccc(C(=N)NCCCC(=O)OC3CCCCC3)cc2)n1C1CCC1 [Compound 56, N-(2-carboxyethyl)-2-{4-[N-(3-cyclohexyloxycarbonylpropyl)amidino]benzoylimino}-3-cyclobutyl-4-methyl-3H-thiazoline-5-carboxamide]
[4]
  IC50: 11.1 nM
